Source: ChEMBL document CHEMBL2385078, “The systematic structure-activity relationship to predict how flavones bind to human androgen receptor for their antagonistic activity” (Bioorg Med Chem, 2013)
Active and inactive are the calls of the source. The calls are words filed in the database; no cut-off is given here.

How the values were obtained:
Androgen receptor = molecular target: T1, Androgen receptor (Homo sapiens, UniProt P10275); assay: Antagonist activity at human androgen receptor LBD expressed in human MDA-kb2 cells by luciferase reporter gene assay; type: cell-based
T1 sequence (P10275 whole entry): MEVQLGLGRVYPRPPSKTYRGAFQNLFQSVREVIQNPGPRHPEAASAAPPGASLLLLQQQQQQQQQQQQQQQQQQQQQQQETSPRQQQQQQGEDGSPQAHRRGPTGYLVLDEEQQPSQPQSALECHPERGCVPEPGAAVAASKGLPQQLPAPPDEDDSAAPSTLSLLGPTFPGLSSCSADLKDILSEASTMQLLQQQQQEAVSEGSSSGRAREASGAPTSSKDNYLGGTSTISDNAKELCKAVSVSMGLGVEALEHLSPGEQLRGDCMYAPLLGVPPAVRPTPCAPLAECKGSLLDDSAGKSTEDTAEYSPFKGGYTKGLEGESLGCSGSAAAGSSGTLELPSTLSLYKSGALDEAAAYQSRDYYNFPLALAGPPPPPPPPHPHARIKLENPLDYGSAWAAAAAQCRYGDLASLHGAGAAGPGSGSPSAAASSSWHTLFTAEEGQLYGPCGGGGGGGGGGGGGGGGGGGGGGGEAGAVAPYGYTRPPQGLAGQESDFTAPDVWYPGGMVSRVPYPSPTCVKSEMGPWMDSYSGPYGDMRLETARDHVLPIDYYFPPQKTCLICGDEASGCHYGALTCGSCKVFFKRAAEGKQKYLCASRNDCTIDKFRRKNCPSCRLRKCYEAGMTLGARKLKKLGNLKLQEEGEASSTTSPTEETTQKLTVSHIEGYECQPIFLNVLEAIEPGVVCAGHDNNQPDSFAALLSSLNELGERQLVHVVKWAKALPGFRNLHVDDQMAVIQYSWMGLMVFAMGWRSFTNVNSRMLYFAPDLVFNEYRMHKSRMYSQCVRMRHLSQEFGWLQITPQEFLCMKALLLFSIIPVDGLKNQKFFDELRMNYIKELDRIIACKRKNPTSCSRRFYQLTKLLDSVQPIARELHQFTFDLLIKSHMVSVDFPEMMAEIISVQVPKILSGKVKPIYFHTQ

[1] = molecular target: T2, Androgen receptor (Homo sapiens) (UniProt P10275); assay: Competitive reversible inhibition of human androgen receptor LBD expressed in human […] cells at IC10 to IC70 in presence of […]; type: cell-based
T2 sequence (whole entry): T1 sequence (P10275 whole entry)

## CN(C)c1ccc(-c2cc(=O)c3c(O)cccc3o2)cc1
Androgen receptor; read-out: IC50
  IC50: 850 nM
Androgen receptor; read-out: pIC50 (converted)
  IC50: 851 nM

## Nc1ccc(-c2cc(=O)c3c(O)cccc3o2)cc1
Androgen receptor; read-out: IC50
  IC50: 1990 nM
Androgen receptor; read-out: pIC50 (converted)
  IC50: 2000 nM

## O=c1cc(-c2ccc([N+](=O)[O-])cc2)oc2cccc(O)c12
Androgen receptor; read-out: IC50
  IC50: 360 nM
Androgen receptor; read-out: pIC50 (converted)
  IC50: 363 nM

## CSc1ccc(-c2cc(=O)c3c(O)cccc3o2)cc1
Androgen receptor; read-out: IC50
  IC50: 1070 nM
Androgen receptor; read-out: pIC50 (converted)
  IC50: 1070 nM

## N#Cc1ccc(-c2cc(=O)c3c(O)cccc3o2)cc1
Androgen receptor; read-out: IC50
  IC50: 250 nM
Androgen receptor; read-out: pIC50 (converted)
  IC50: 251 nM

## O=c1cc(-c2ccc(Cl)cc2)oc2cccc(O)c12
Androgen receptor; read-out: IC50
  IC50: 460 nM
Androgen receptor; read-out: pIC50 (converted)
  IC50: 457 nM

## O=c1cc(-c2ccccc2)oc2cccc(F)c12
Androgen receptor; read-out: IC50
  IC50: 770 nM
Androgen receptor; read-out: pIC50 (converted)
  IC50: 776 nM

## O=c1cc(-c2ccc(O)cc2)oc2cccc(O)c12
Androgen receptor; read-out: IC50
  IC50: 860 nM
Androgen receptor; read-out: pIC50 (converted)
  IC50: 851 nM

## O=c1cc(-c2ccc(F)cc2)oc2cccc(F)c12
[1]
  inhibition: Active
Androgen receptor; read-out: IC50
  IC50: 190 nM
Androgen receptor; read-out: pIC50 (converted)
  IC50: 191 nM

## COc1cccc2oc(-c3ccc(F)cc3)cc(=O)c12
Androgen receptor; read-out: IC50
  IC50: 1610 nM
Androgen receptor; read-out: pIC50 (converted)
  IC50: 1620 nM

## N#Cc1ccc(-c2cc(=O)c3c(F)cccc3o2)cc1
Androgen receptor; read-out: IC50
  IC50: 1200 nM
Androgen receptor; read-out: pIC50 (converted)
  IC50: 1200 nM

## O=c1cc(-c2ccc(F)cc2)oc2cccc(O)c12
Androgen receptor; read-out: IC50
  IC50: 330 nM
Androgen receptor; read-out: pIC50 (converted)
  IC50: 331 nM

## O=c1cc(-c2ccc(Cl)cc2)oc2cccc(F)c12
Androgen receptor; read-out: IC50
  IC50: 360 nM
Androgen receptor; read-out: pIC50 (converted)
  IC50: 363 nM

## O=c1cc(-c2ccc(C(F)(F)F)cc2)oc2cccc(O)c12
Androgen receptor; read-out: IC50
  IC50: 1240 nM
Androgen receptor; read-out: pIC50 (converted)
  IC50: 1230 nM

## Cc1ccc(-c2cc(=O)c3c(O)cccc3o2)cc1
Androgen receptor; read-out: IC50
  IC50: 11100 nM
Androgen receptor; read-out: pIC50 (converted)
  IC50: 11200 nM

## NC(=O)c1ccc(-c2cc(=O)c3c(O)cccc3o2)cc1
Androgen receptor; read-out: IC50
  IC50: 3580 nM
Androgen receptor; read-out: pIC50 (converted)
  IC50: 3550 nM
